Measured values published in patent US8097733B2, “Pyrazole derivatives as 5-LO-inhibitors” (Pfizer Inc., priority 2007, dated 2012).

How the values were obtained:
[1] = tested on: human whole blood (leukotriene and prostaglandin levels); assay: Eicosanoid production from human whole blood; type: cell-based; details: human whole blood stimulated with calcium ionophore A23187 and arachidonic acid; ELISA
How it was run: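 Pooled heparinized whole blood from healthy or asthmatic donors was preincubated with compound for 10 min at room temperature, with 2.5% DMSO final. It was stimulated with calcium ionophore A23187 plus arachidonic acid (30 μM) in 60% ethanol for 15 min at 37 °C. Plasma leukotrienes and prostaglandins were measured by ELISA.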

[2] = target: T1, recombinant human 5-LOX (Homo sapiens, UniProt P09917); assay: Fluorescence Intensity 5-LOX Enzyme Assay; type: biochemical; details: crude lysate of recombinant human 5-LOX; highest inhibitor concentration tested typically 25 μM
T1 sequence (P09917 1-674): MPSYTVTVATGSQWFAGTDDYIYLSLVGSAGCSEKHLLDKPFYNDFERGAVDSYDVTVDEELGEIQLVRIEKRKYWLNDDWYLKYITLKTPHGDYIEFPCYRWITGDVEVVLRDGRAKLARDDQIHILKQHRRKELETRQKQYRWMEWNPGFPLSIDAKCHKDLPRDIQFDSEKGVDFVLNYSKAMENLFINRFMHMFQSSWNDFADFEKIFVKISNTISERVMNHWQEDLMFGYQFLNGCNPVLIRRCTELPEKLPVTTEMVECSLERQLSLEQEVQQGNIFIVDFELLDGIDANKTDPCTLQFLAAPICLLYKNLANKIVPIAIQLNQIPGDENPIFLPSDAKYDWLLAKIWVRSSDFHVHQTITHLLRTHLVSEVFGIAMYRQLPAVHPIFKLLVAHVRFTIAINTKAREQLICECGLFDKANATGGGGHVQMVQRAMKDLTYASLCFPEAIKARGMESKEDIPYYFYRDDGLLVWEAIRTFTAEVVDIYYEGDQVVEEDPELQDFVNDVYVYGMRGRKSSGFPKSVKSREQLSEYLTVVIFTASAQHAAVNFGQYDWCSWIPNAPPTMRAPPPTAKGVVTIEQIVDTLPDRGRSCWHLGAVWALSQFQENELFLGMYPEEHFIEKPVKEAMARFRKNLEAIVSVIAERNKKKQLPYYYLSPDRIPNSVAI
How it was run: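 Crude lysate enzyme with H2DCFDA 10 μM (5 min dye pre-incubation), inhibitor pre-incubated 10 min; reaction started with 3 μM arachidonic acid plus 10 μM ATP in Tris pH 7.5, CaCl2, EDTA, 20 min at room temperature, acetonitrile stop. Fluorescein fluorescence; 7-point 4-parameter IC50, top 25 μM, 2.5% DMSO.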

[3] = tested on: eicosanoid production in the rat air pouch; assay: Carrageenan-induced eicosanoid production in the rat air pouch; type: in vivo; details: po, male Lewis rats, 3 mpk by gavage 1 hour prior to carrageenan
Procedure: Carrageenan-Induced Eicosanoid Production in the Rat Air Pouch:
Male Lewis rats (175-200 g), Charles River Laboratories, Wilmington, Mass.) were used in the study. Air pouches were produced by subcutaneous injection of 20 ml of sterile air into the intrascapular area of the back. Pouches were allowed to develop for 1 day. Animals (6 per group) were fasted with free access to water for 16 to 24 hours prior to drug administration. Drugs or vehicle were administered by gavage 1 hour prior to injection of 2 ml of a 1% suspension of carrageenan (FMC BioPolymer, Philadelphia, Pa., Cat. # GP209-NF) dissolved in saline into the pouch. At 3 hours post-carrageenan injection, 1 ml of 50 μg/ml calcium ionophore in saline (A23187, Sigma Chemical Co, St. Louis, M, Cat. #C-7522) was injected into the pouch and the pouch fluid collected 10 minutes later by lavage. The fluid was centrifuged at 3500 rpm for 10 minutes at 4° C., and the supernatants were collected for analysis. Leukotriene and prostaglandin levels were quantitated by ELISA according to the manufacturer's directions (Cayman Chemical Company, Ann Arbor, Mi).

Structure (SMILES)	IC50 [1]	IC50 [2]	inhibition at 3 mg/kg [3]
Cn1nccc1C(=O)c1ccc(Sc2cccc(C3(C(N)=O)CCOCC3)c2)cc1 [Example 34, 4-[3-({4-[(1-methyl-1H-pyrazol-5-yl)carbonyl]phenyl}thio)phenyl]tetrahydro-2H-pyran-4-carboxamide]	0.549 µM	0.0402 µM	99.5%
C[C@H]1C[C@@](C#N)(c2cccc(Sc3ccc(C(=O)c4ccnn4C)cc3)c2F)CCO1 [Example 53, (2S,4R)+(2-fluoro-3-(4-(1-methyl-1H-pyrazole-5-carbonyl)phenylthio)phenyl)-2-methyl-tetrahydro-2H-pyran-4-carbonitrile]	0.35 µM	0.0657 µM	94%
Cn1nccc1-c1ccc(Sc2cccc(C3(C(N)=O)CCOCC3)c2)cc1C#N [Example 2, 4-(3-{[3-Cyano-4-(1-methyl-1H-pyrazol-5-yl)phenyl]thio}phenyl)tetrahydro-2H-pyran-4-carboxamide]	0.196 µM	0.66 µM	0%
C[C@H]1C[C@@](C#N)(c2cc(F)cc(Sc3ccc(-c4ccnn4C)c(F)c3)c2)CCO1 [32(1), (2S,4R)-4-(3-fluoro-5-(3-fluoro-4-(1-methyl-1H-pyrazol-5-yl)phenylthio)phenyl)-2-methyl-tetrahydro-2H-pyran-4-carbonitrile]	0.107 µM	0.151 µM	93%
C[C@H]1C[C@@](C#N)(c2cccc(Sc3ccc(-c4ccnn4C)c(F)c3)c2F)CCO1 [31(1), (2S,4R)-4-(2-fluoro-3-(3-fluoro-4-(1-methyl-1H-pyrazol-5-yl)phenylthio)phenyl)-2-methyl-tetrahydro-2H-pyran-4-carbonitrile]	0.0598 µM	0.0215 µM	96%
Cn1nccc1-c1ccc(Sc2cccc(C3(C(N)=O)CCOCC3)c2)cc1Cl [Example 1, 4-(3-{[3-chloro-4-(1-methyl-1H-pyrazol-5-yl)phenyl]thio}phenyl)tetrahydro-2H-pyran-4-carboxamide]	0.0765 µM	0.0897 µM	50.5%
C[C@H]1C[C@@](C#N)(c2cccc(Sc3ccc(-c4ccnn4C)cc3)c2F)CCO1 [29(2), (2S,4R)-4-(2-fluoro-3-(4-(1-methyl-1H-pyrazol-5-yl)phenylthio)phenyl)-2-methyl-tetrahydro-2H-Pyran-4-carbonitrile]	0.0625 µM	0.03 µM	100%
Cn1nccc1-c1ccc([S+]([O-])c2cccc(C3(C(N)=O)CCOCC3)c2)cc1 (centres unmarked) [Example 50, 4-(3-{[4-(1-methyl-1H-pyrazol-5-yl)phenyl]sulfinyl}phenyl)tetrahydro-2H-pyran-4-carboxamide]	–	≥ 25 µM	12%
Cn1nccc1-c1ccc(Sc2cccc(C3(C#N)CCOCC3)c2F)cc1 [Example 48, 4-(2-fluoro-3-{[4-(1-methyl-1H-pyrazol-6-yl)phenyl]thio}phenyl)tetrahydro-2H-pyran-4-carbonitrile]	0.124 µM	0.387 µM	38%
C[C@H]1C[C@@](C(N)=O)(c2cc(F)cc(Sc3ccc(-c4ccnn4C)cc3)c2)CCO1 [Example 27, (2S,4R)-4-(3-fluoro-5-(4-(1-methyl-1H-pyrazol-5-yl)phenylthio)phenyl)-2-methyl-tetrahydro-2H-pyran-4-carboxamide]	0.138 µM	0.0198 µM	100%
Cc1nccn1-c1ccc(Sc2cccc(C3(C(N)=O)CCOCC3)c2)cc1 [(d), 4-(3-(4-(2-methyl-1H-imidazol-1-yl)phenylthio)phenyl)-tetrahydro-2H-pyran-4-carboxamide, reference compound]	0.275 µM	0.877 µM	73.1%
C[C@H]1C[C@@](C(N)=O)(c2ccc(F)c(Sc3ccc(-c4ccnn4C)cc3)c2F)CCO1 [Example 28, (2S,4R)-4-(2,4-difluoro-3-(4-(1-methyl-1H-pyrazol-5-yl)phenylthio)phenyl)-2-methyl-tetrahydro-2H-pyran-4-carboxamide]	0.227 µM	0.021 µM	100%
Cn1nccc1Cc1ccc(Sc2cccc(C3(C(N)=O)CCOCC3)c2)cc1F [Example 33, 4-{3-[3-Fluoro-4-(2-methyl-2H-pyrazol-3-ylmethyl)phenylsulfanyl]-phenyl}-tetrahydro-pyran-4-carboxylic acid amide]	0.492 µM	0.11 µM	76%
Cn1nccc1-c1ccc(Sc2cc(F)cc(C3(C(N)=O)CCOCC3)c2F)cc1 [19(10), 4-(2,5-difluoro-3-{[4-(1-methyl-1H-pyrazol-5-yl)phenyl]-thio}phenyl)tetrahydro-2H-pyran-4-carboxamide]	0.48 µM	0.0505 µM	–

Further compounds by falling IC50 [2], results first:

IC50 [1]	IC50 [2]	Structure (SMILES)	inhibition at 3 mg/kg [3]
0.676 µM	7.77 µM	Cn1nccc1-c1ncc(Sc2cccc(C3(C#N)CCOCC3)c2)cc1Cl [Example 47, 4-(3-{[5-chloro-6-(1-methyl-1H-pyrazol-5-yl)pyridin-3-yl]thio}phenyl)tetrahydro-2H-pyran-4-carbonitrile]	–
0.448 µM	0.225 µM	Cn1nccc1-c1ccc(Sc2c(F)ccc(C3(C(N)=O)CCOCC3)c2F)cc1 [Example 20, 4-(2,4-difluoro-3-{[4-(1-methyl-1H-pyrazol-5-yl)phenyl]thio}phenyl)-tetrahydro-2H-pyran-4-carboxamide]	91%
1.14 µM	0.156 µM	Cn1nccc1C(=O)c1ccc(Sc2cccc(C3(C(N)=O)CCOCC3)c2)cc1F [Example 58, 4-[3-({3-fluoro-4-[(1-methyl-1H-pyrazol-5-yl)carbonyl]phenyl}thio)phenyl]tetrahydro-2H-pyran-4-carboxamide]	0%
0.996 µM	0.114 µM	CNC(=O)C1(c2cc(F)cc(Sc3ccc(-c4ccnn4C)cc3)c2F)CCOCC1 [Example 19, 4-(2,5-difluoro-3-{[4-(1-methyl-1H-pyrazol-5-yl)phenyl]thio}phenyl)-N-methyltetrahydro-2H-pyran-4-carboxamide]	95.3%
1.06 µM	0.0813 µM	CNC(=O)C1(c2cccc(Sc3ccc(C(=O)c4ccnn4C)c(Cl)c3)c2)CCOCC1 [Example 65, 4-[3-({3-chloro-4-[(1-methyl-1H-pyrazol-5-yl)carbonyl]phenyl}thio)phenyl]-N-methyltetrahydro-2H-pyran-4-carboxamide]	–
0.331 µM	0.0679 µM	CNC(=O)C1(c2cccc(Sc3ccc(-c4ccnn4C)cc3Cl)c2)CCOCC1 [Example 16, 4-(3-{[2-chloro-4-(1-methyl-1H-pyrazol-6-yl)phenyl]thio}phenyl)-N-methyltetrahydro-2H-pyran-4-carboxamide]	0%
0.472 µM	0.0432 µM	Cn1ncc(Cl)c1-c1ccc(Sc2cccc(C3(C(N)=O)CCOCC3)c2)cc1F [Example 56, 4-(3-{[4-(4-chloro-1-methyl-1H-pyrazol-5-yl)-3-fluorophenyl]thio}phenyl)tetrahydro-2H-pyran-4-carboxamide]	62%
0.185 µM	0.0164 µM	C[C@H]1C[C@@](C(N)=O)(c2cccc(Sc3ccc(-c4ccnn4C)cc3)c2)CCO1 [Example 22, (2S,4R)-2-methyl-4-(3-(4-(1-methyl-1H-pyrazol-5-yl)phenylthio)phenyl)-tetrahydro-2H-pyran-4-carboxamide]	99.5%
0.265 µM	0.0149 µM	C[C@H]1C[C@@](C(N)=O)(c2cccc(Sc3ccc(-c4ccnn4C)cc3)c2F)CCO1 [Example 29, (2S,4R)-4-(2-fluoro-3-(4-(1-methyl-1H-pyrazol-5-yl)phenylthio)phenyl)-2-methyl-tetrahydro-2H-pyran-4-carboxamide]	100%
